Data reported in BindingDB's records for doi:10.1021/jm000209n (Tohoku University, 2000).

Columns and labels:
[1] = Tested in vitro against HIV-1 LAI from MT-4 cells using MTT assay
[2] = Tested in vitro against HIV-1 MDR using MAGI assay

| SMILES | EC50 [1] [µM] | EC50 [2] [µM] |
| --- | --- | --- |
| C#C[C@]1(CO)O[C@@H](n2cc(Cl)c(=O)[nH]c2=O)C[C@H]1O | 6 | – |
| C#C[C@]1(CO)O[C@@H](n2cc(F)c(=O)[nH]c2=O)C[C@H]1O | > 10 | – |
| C#C[C@]1(CO)O[C@@H](n2cc(CC)c(=O)[nH]c2=O)C[C@H]1O | > 360 | – |
| C#C[C@]1(CO)O[C@@H](n2cc(Br)c(=O)[nH]c2=O)C[C@H]1O | 2.3 | – |
| C#C[C@]1(CO)O[C@@H](n2cc(I)c(=O)[nH]c2=O)C[C@H]1O [1-(5-Ethynyl-4-hydroxy-5-hydroxymethyl-tetrahydro-furan-2-yl)-5-iodo-1H-pyrimidine-2,4-dione] | 0.34 | 0.62 |
| C#C[C@]1(CO)O[C@@H](n2cc(C)c(=O)[nH]c2=O)C[C@H]1O [1-(5-Ethynyl-4-hydroxy-5-hydroxymethyl-tetrahydro-furan-2-yl)-5-methyl-1H-pyrimidine-2,4-dione] | 0.61 | 0.24 |
| Cc1cn([C@H]2C[C@H](N=[N+]=[N-])[C@@H](CO)O2)c(=O)[nH]c1=O [1-((2R,4S,5S)-4-Azido-5-hydroxymethyl-tetrahydro-furan-2-yl)-5-methyl-1H-pyrimidine-2,4-dione] | 0.038 | 24.9 |
| C#C[C@]1(CO)O[C@@H](n2cnc3c(=O)[nH]c(N)nc32)C[C@H]1O [2-Amino-9-(5-ethynyl-4-hydroxy-5-hydroxymethyl-tetrahydro-furan-2-yl)-9H-purin-6-ol] | 0.0014 | – |
| C#C[C@]1(CO)O[C@@H](n2cnc3cncnc32)C[C@H]1O [2-Ethynyl-2-hydroxymethyl-5-purin-9-yl-tetrahydro-furan-3-ol] | 117 | 145 |
| C#C[C@]1(CO)O[C@@H](n2ccc(N)nc2=O)C[C@H]1O [4-Amino-1-(5-ethynyl-4-hydroxy-5-hydroxymethyl-tetrahydro-furan-2-yl)-1H-pyrimidin-2-one] | 0.0048 | 0.0015 |
| C#C[C@]1(CO)O[C@@H](n2cc(F)c(N)nc2=O)C[C@H]1O [4-Amino-1-(5-ethynyl-4-hydroxy-5-hydroxymethyl-tetrahydro-furan-2-yl)-5-fluoro-1H-pyrimidin-2-one] | 0.03 | 0.009 |
| C#C[C@]1(CO)O[C@@H](n2cc(C)c(N)nc2=O)C[C@H]1O [4-Amino-1-(5-ethynyl-4-hydroxy-5-hydroxymethyl-tetrahydro-furan-2-yl)-5-methyl-1H-pyrimidin-2-one] | 0.011 | 0.0045 |
| C#C[C@]1(CO)O[C@@H](n2cnc3c(N)nc(N)nc32)C[C@H]1O [5-(2,6-Diamino-purin-9-yl)-2-ethynyl-2-hydroxymethyl-tetrahydro-furan-3-ol] | 0.0003 | 0.0013 |
| C#C[C@]1(CO)O[C@@H](n2cnc3c(N)ncnc32)C[C@H]1O [5-(6-Amino-purin-9-yl)-2-ethynyl-2-hydroxymethyl-tetrahydro-furan-3-ol] | 0.012 | – |
| C#C[C@]1(CO)O[C@@H](n2cnc3c(=O)[nH]cnc32)C[C@H]1O [9-(5-Ethynyl-4-hydroxy-5-hydroxymethyl-tetrahydro-furan-2-yl)-9H-purin-6-ol] | 0.15 | 0.65 |
